According to the supplement of paper PMC10307832:

Key:
Assay in all cases: relative viability (nuclei count vs DMSO), 5 days (fraction); higher = more cells survive
[1] = compound: CC1=NN=C(O1)C2=NN=C(C=C2)N3CCC(CC3)OC4=C(C=CC(=C4)F)Cl + CS(=O)(=O)CCNCc1ccc(-c2ccc3ncnc(Nc4ccc(OCc5cccc(F)c5)c(Cl)c4)c3c2)o1 [Lapatinib] (partner 2 µM)
Summary of the method: (§1)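 Five library-drug doses in √10 steps were combined with a fixed anchor-drug dose, or a single drug was given alone, by pin tool to lung cancer cell lines in 1536-well plates the day after seeding. Nuclei were stained and counted after 5 days. Relative viability is the nuclei count in treated wells over that in vehicle wells, taken as the median of duplicate plates.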

Tosedostat + OSI-027 = compound: CC(C)C[C@@H](C(=O)N[C@H](C(=O)OC1CCCC1)c1ccccc1)[C@H](O)C(=O)NO [Tosedostat] + COc1cccc2cc(-c3nc([C@H]4CC[C@H](C(=O)O)CC4)n4ncnc(N)c34)[nH]c12 [OSI-027] (partner 0.5 µM)
Summary of the method: as §1

[2] = compound: CC1=NN=C(O1)C2=NN=C(C=C2)N3CCC(CC3)OC4=C(C=CC(=C4)F)Cl + CCNC(=O)c1noc(-c2cc(C(C)C)c(O)cc2O)c1-c1ccc(CN2CCOCC2)cc1 [Luminespib] (partner 0.01 µM)
Summary of the method: as §1

[3] = compound: CC1=NN=C(O1)C2=NN=C(C=C2)N3CCC(CC3)OC4=C(C=CC(=C4)F)Cl + NC(=O)Nc1cc(-c2cccc(F)c2)sc1C(=O)N[C@H]1CCCNC1 [AZD7762] (partner 0.2 µM)
Summary of the method: as §1

Cell Line | relative viability ([1]; first compound 0.253 µM) | relative viability ([1]; first compound 0.8 µM) | relative viability ([1]; first compound 2.53 µM) | relative viability ([1]; first compound 8 µM) | relative viability (Tosedostat + OSI-027; first compound 0.02 µM) | relative viability (Tosedostat + OSI-027; first compound 0.06325 µM) | relative viability (Tosedostat + OSI-027; first compound 0.2 µM) | relative viability (Tosedostat + OSI-027; first compound 0.6325 µM) | relative viability (Tosedostat + OSI-027; first compound 2 µM) | relative viability ([2]; first compound 0.253 µM) | relative viability ([2]; first compound 0.8 µM) | relative viability ([2]; first compound 2.53 µM) | relative viability ([2]; first compound 8 µM) | relative viability ([3]; first compound 0.253 µM) | relative viability ([3]; first compound 0.8 µM) | relative viability ([3]; first compound 2.53 µM) | relative viability ([3]; first compound 8 µM)
A549 | 0.523 | 0.365 | 0.4 | 0.425 | – | – | – | – | – | – | – | – | – | – | – | – | –
COR-L23 | 0.811 | 0.761 | 0.756 | 0.602 | 0.965 | 0.746 | 0.69 | 0.65 | 0.64 | 0.587 | 0.647 | 0.458 | 0.474 | – | – | – | –
COR-L 105 | 0.349 | 0.36 | 0.332 | 0.417 | 0.605 | 0.731 | 0.647 | 0.606 | 0.62 | 0.622 | 0.812 | 0.691 | 0.625 | – | – | – | –
Calu-6 | 0.65 | 0.604 | 0.636 | 0.557 | – | – | – | – | – | – | – | – | – | – | – | – | –
ChaGo-K-1 | – | – | – | – | 0.54 | 0.525 | 0.577 | 0.617 | 0.498 | 0.426 | 0.532 | 0.56 | 0.541 | 0.588 | 0.529 | 0.705 | 0.594
EBC-1 | 0.208 | 0.191 | 0.182 | 0.197 | – | – | – | – | – | – | – | – | – | – | – | – | –
HCC-78 | 0.401 | 0.351 | 0.404 | 0.325 | 0.33 | 0.377 | 0.406 | 0.364 | 0.376 | – | – | – | – | 0.457 | 0.483 | 0.463 | 0.373
HCC-366 | 0.384 | 0.41 | 0.393 | 0.406 | 1.15 | 0.806 | 1.01 | 0.643 | 0.594 | – | – | – | – | 0.118 | 0.144 | 0.225 | 0.173
IA-LM | 0.283 | 0.241 | 0.257 | 0.275 | – | – | – | – | – | – | – | – | – | – | – | – | –
LCLC-103H | – | – | – | – | 0.553 | 0.417 | 0.491 | 0.502 | 0.472 | 0.678 | 0.74 | 0.537 | 0.582 | 0.62 | 0.657 | 0.633 | 0.631
NCI-H441 | – | – | – | – | 0.609 | 0.593 | 0.632 | 0.433 | 0.437 | 0.295 | 0.32 | 0.245 | 0.282 | 0.621 | 0.632 | 0.69 | 0.608
NCI-H520 | 0.888 | 0.84 | 0.82 | 0.764 | 0.215 | 0.285 | – | 0.335 | 0.22 | 0.207 | 0.217 | 0.199 | 0.2 | – | – | – | –
NCI-H522 | – | – | – | – | 0.842 | 0.82 | 0.819 | 0.916 | 0.79 | 1.2 | 0.989 | 1.15 | 1.22 | 0.9 | 0.879 | 0.857 | 0.715
NCI-H661 | 0.541 | 0.477 | 0.542 | 0.417 | 0.706 | 0.767 | 0.714 | 0.648 | 0.561 | 0.785 | 0.751 | 0.714 | 0.549 | – | – | – | –
NCI-H1299 | 0.737 | 0.718 | 0.752 | 0.687 | – | – | – | – | – | – | – | – | – | – | – | – | –
NCI-H1563 | 0.804 | 0.992 | 0.88 | 0.82 | 0.813 | 0.797 | 0.788 | 0.891 | 0.836 | 0.488 | 0.52 | 0.519 | 0.532 | – | – | – | –
NCI-H1648 | – | – | – | – | 0.28 | 0.268 | 0.262 | 0.242 | 0.267 | – | – | – | – | 0.434 | 0.532 | 0.6 | 0.503
NCI-H1650 | – | 0.71 | 0.691 | 0.566 | 0.606 | 0.633 | 0.662 | 0.639 | 0.706 | – | 0.194 | 0.217 | 0.205 | – | – | – | –
NCI-H1703 | 1.06 | 0.795 | 0.904 | 0.76 | – | – | – | – | – | – | – | – | – | 0.097 | 0.129 | 0.153 | 0.0983
NCI-H2009 | 0.453 | 0.421 | 0.427 | 0.464 | 0.696 | 0.605 | 0.498 | 0.4 | 0.367 | 0.596 | 0.565 | 0.539 | 0.523 | – | – | – | –
NCI-H2023 | 0.441 | 0.407 | 0.409 | 0.435 | 0.431 | 0.383 | 0.328 | 0.251 | 0.231 | 0.376 | 0.389 | 0.336 | 0.253 | – | – | – | –
NCI-H2228 | 1.03 | 1.01 | 1.13 | 0.848 | 0.728 | 0.574 | 0.571 | 0.387 | 0.363 | 0.164 | 0.15 | 0.132 | 0.131 | – | – | – | –
SK-LU-1 | 0.703 | 0.749 | 0.772 | 0.807 | 0.43 | 0.348 | 0.337 | 0.297 | 0.329 | 0.218 | – | 0.207 | 0.185 | – | – | – | –
SK-MES-1 | 0.452 | 0.528 | 0.445 | 0.518 | 0.532 | 0.59 | 0.595 | 0.538 | 0.396 | 0.726 | 0.725 | 0.631 | 0.547 | – | – | – | –
SW 1573 | 1.03 | 1.09 | 0.877 | 0.932 | 0.653 | 0.517 | 0.558 | 0.479 | 0.482 | 0.184 | 0.204 | 0.264 | 0.2 | – | – | – | –
UMC-11 | 0.641 | 0.645 | 0.777 | 0.595 | 0.473 | 0.464 | 0.397 | 0.449 | 0.473 | 0.523 | 0.572 | 0.453 | 0.552 | – | – | – | –
